In one data set the test system is Escherichia coli. The experiment in a line: Antibacterial activity against Escherichia coli ATCC 47076 assessed as bacterial growth inhibition. It counts as functional.
Data set [1] concerns Klebsiella pneumoniae. Briefly: Antibacterial activity against Klebsiella pneumoniae ATCC 10031 assessed as bacterial growth inhibition. It counts as functional.
Data set [2] deals with Acinetobacter baumannii. The experiment in a line: Antibacterial activity against Acinetobacter baumannii ATCC 19606 assessed as bacterial growth inhibition. It counts as functional. Conditions: ATCC 19606 = CIP 70.34 = JCM 6841.
For data set [3], the system named is Pseudomonas aeruginosa. Briefly: Antibacterial activity against Pseudomonas aeruginosa ATCC 27853 assessed as bacterial growth inhibition. It counts as functional.
The subject of data set [4] is Klebsiella pneumoniae. Briefly: Antibacterial activity against Klebsiella pneumoniae ATCC 700721 assessed as bacterial growth inhibition. It counts as functional.
In data set [5] the test system is Klebsiella pneumoniae. Briefly: Antibacterial activity against Klebsiella pneumoniae JCM 1662 assessed as bacterial growth inhibition. It counts as functional.
For data set [6], the system named is Pseudomonas aeruginosa. The experiment in a line: Antibacterial activity against Pseudomonas aeruginosa ATCC 15692 assessed as bacterial growth inhibition. It counts as functional.
The test system of data set [7] is Klebsiella pneumoniae. The experiment in a line: Antibacterial activity against Klebsiella pneumoniae IHMA 1387833 assessed as bacterial growth inhibition. It counts as functional.
The subject of data set [8] is Acinetobacter baumannii. The experiment in a line: Antibacterial activity against Acinetobacter baumannii IHMA 1312713 assessed as bacterial growth inhibition. It counts as functional.
The test system of data set [9] is Pseudomonas aeruginosa. Briefly: Antibacterial activity against Pseudomonas aeruginosa IHMA 1375891 assessed as bacterial growth inhibition. It counts as functional.
Data set [10] is described as follows: Cytotoxicity against HEK293 cells. It counts as cell-based. The following applies: human, HEK293 cells.
The next data set deals with HepG2. Briefly: Cytotoxicity against human HepG2 cells. It counts as functional.

Values after ≈ are worked out from the molar mass of the structure shown.

The MIC is the smallest concentration in the dilution series that meets the test's criterion for growth inhibition. As a reminder, the CC50 is the concentration that lowers cell viability or growth by half. A low value points to greater toxicity to the cells. Consider `C/C=C1\NC(=O)C(NC(=O)Cc2ccc(NC(=O)Nc3c(C)cccc3C)c(Cl)c2)C(O)CNC(=O)C(C(O)CN)NC(=O)C(C(O)CN)NC(=O)[C@H](CCCNC(=N)N)NC(=O)[C@H](CC(C)C)NC(=O)[C@H](CCN)NC1=O` (stereo partly drawn), for which the MIC in the data set with Escherichia coli is 4 µg/mL (≈ 3.59 µM); in the data set on Klebsiella pneumoniae [1], 128 µg/mL (≈ 115 µM); in the data set on Acinetobacter baumannii [2] it was greater than 256 µg/mL; in the data set on Pseudomonas aeruginosa [3], 128 µg/mL (≈ 115 µM); with Klebsiella pneumoniae [4], greater than 256 µg/mL; in the data set on Klebsiella pneumoniae [5], greater than 256 µg/mL. The MIC with Pseudomonas aeruginosa [6], in the data set with Klebsiella pneumoniae [7], in the data set on Acinetobacter baumannii [8] and with Pseudomonas aeruginosa [9] was greater than 256 µg/mL in each case. For the same compound, the CC50 (in data set [10]; with HepG2) was greater than 64 µM each time.

For `C/C=C1\NC(=O)C(NC(=O)C2CC3(CCN(C(=O)OC(C)(C)C)CC3)c3ccccc32)C(O)CNC(=O)C(C(O)CN)NC(=O)C(C(O)CN)NC(=O)[C@H](CCCNC(=N)N)NC(=O)[C@H](CC(C)C)NC(=O)[C@H](CCN)NC1=O` (stereo partly drawn), the MIC in the data set on Escherichia coli was 4 µg/mL (≈ 3.59 µM); in the data set on Klebsiella pneumoniae [1], 4 µg/mL (≈ 3.59 µM); with Acinetobacter baumannii [2], 256 µg/mL (≈ 230 µM); in the data set on Pseudomonas aeruginosa [3], 16 µg/mL (≈ 14.4 µM); with Klebsiella pneumoniae [4], greater than 256 µg/mL; in the data set with Klebsiella pneumoniae [5], greater than 256 µg/mL. Further, the MIC in the data set on Pseudomonas aeruginosa [6], in the data set on Klebsiella pneumoniae [7], with Acinetobacter baumannii [8] and with Pseudomonas aeruginosa [9] was greater than 256 µg/mL each time. The CC50 (in data set [10]; in the data set on HepG2) was greater than 64 µM each time.

As for `C/C=C1\NC(=O)C(NC(=O)CCc2nc(-c3ccc(OC)cc3)no2)C(O)CNC(=O)C(C(O)CN)NC(=O)C(C(O)CN)NC(=O)[C@H](CCCNC(=N)N)NC(=O)[C@H](CC(C)C)NC(=O)[C@H](CCN)NC1=O` (stereo partly drawn), the MIC in the data set on Escherichia coli was 2 µg/mL (≈ 1.94 µM); with Klebsiella pneumoniae [1], 2 µg/mL (≈ 1.94 µM); in the data set with Acinetobacter baumannii [2] it was 8 µg/mL (≈ 7.76 µM); with Pseudomonas aeruginosa [3], 8 µg/mL (≈ 7.76 µM); with Klebsiella pneumoniae [4], 2 µg/mL (≈ 1.94 µM); in the data set with Klebsiella pneumoniae [5], greater than 256 µg/mL. The MIC in the data set with Pseudomonas aeruginosa [6], with Klebsiella pneumoniae [7], with Acinetobacter baumannii [8] and with Pseudomonas aeruginosa [9] was greater than 256 µg/mL in each case. Moreover, the CC50 (in data set [10]; in the data set with HepG2) was greater than 64 µM throughout.

As for `C/C=C1\NC(=O)C(NC(=O)C2CCCN(C(=O)c3ccc(Cl)c(Cl)c3)C2)C(O)CNC(=O)C(C(O)CN)NC(=O)C(C(O)CN)NC(=O)[C@H](CCCNC(=N)N)NC(=O)[C@H](CC(C)C)NC(=O)[C@H](CCN)NC1=O` (stereo partly drawn), the MIC in the data set on Escherichia coli is 8 µg/mL (≈ 7.37 µM); in the data set with Klebsiella pneumoniae [1], greater than 256 µg/mL; in the data set with Acinetobacter baumannii [2] it was greater than 256 µg/mL; in the data set with Pseudomonas aeruginosa [3], 32 µg/mL (≈ 29.5 µM); in the data set with Klebsiella pneumoniae [4], greater than 256 µg/mL; in the data set on Klebsiella pneumoniae [5], greater than 256 µg/mL. Further, the MIC in the data set on Pseudomonas aeruginosa [6], with Klebsiella pneumoniae [7], with Acinetobacter baumannii [8] and with Pseudomonas aeruginosa [9] was greater than 256 µg/mL each time. Also, the CC50 (in data set [10]; with HepG2) was greater than 64 µM each time.

For the compound COLISTIN, the MIC is 1 µg/mL with Escherichia coli; 1 µg/mL with Klebsiella pneumoniae [1]; 2 µg/mL in the data set with Acinetobacter baumannii [2]; 2 µg/mL with Pseudomonas aeruginosa [3]; 1 µg/mL in the data set with Klebsiella pneumoniae [4]; 4 µg/mL in the data set with Klebsiella pneumoniae [5]. In addition, the MIC was 2 µg/mL in the data set on Pseudomonas aeruginosa [6], 32 µg/mL in the data set on Klebsiella pneumoniae [7], 8 µg/mL in the data set on Acinetobacter baumannii [8] and 64 µg/mL with Pseudomonas aeruginosa [9]. This compound also displayed a CC50 with HepG2 greater than 64 µM.

Consider `C/C=C1\NC(=O)C(NC(=O)c2cn3c4c(c(N5CCN(C)CC5)c(F)cc4c2=O)OC[C@@H]3C)C(O)CNC(=O)C(C(O)CN)NC(=O)C(C(O)CN)NC(=O)[C@H](CCCNC(=N)N)NC(=O)[C@H](CC(C)C)NC(=O)[C@H](CCN)NC1=O` (stereo partly drawn), for which the MIC in the data set on Escherichia coli was 128 µg/mL (≈ 112 µM); with Klebsiella pneumoniae [1], 64 µg/mL (≈ 55.9 µM); in the data set with Acinetobacter baumannii [2] it was greater than 128 µg/mL; in the data set on Pseudomonas aeruginosa [3], 32 µg/mL (≈ 28 µM); in the data set with Klebsiella pneumoniae [4], greater than 256 µg/mL; in the data set with Klebsiella pneumoniae [5], greater than 128 µg/mL. Further, the MIC is greater than 128 µg/mL in the data set with Pseudomonas aeruginosa [6], greater than 256 µg/mL in the data set with Klebsiella pneumoniae [7], greater than 128 µg/mL in the data set with Acinetobacter baumannii [8] and greater than 128 µg/mL with Pseudomonas aeruginosa [9]. Moreover, the CC50 (in [10]; in the data set with HepG2) was greater than 64 µM throughout.

In the case of `C/C=C1\NC(=O)C(NC(=O)CCCCCCCCC(=O)OCc2ccccc2)C(O)CNC(=O)C(C(O)CN)NC(=O)C(C(O)CN)NC(=O)[C@H](CCCNC(=N)N)NC(=O)[C@H](CC(C)C)NC(=O)[C@H](CCN)NC1=O` (stereo partly drawn), the MIC is 9 µg/mL (≈ 8.37 µM) with Escherichia coli; 8 µg/mL (≈ 7.44 µM) in the data set with Klebsiella pneumoniae [1]; 4 µg/mL (≈ 3.72 µM) in the data set on Acinetobacter baumannii [2]; 16 µg/mL (≈ 14.9 µM) in the data set with Pseudomonas aeruginosa [3]; 8 µg/mL (≈ 7.44 µM) in the data set on Klebsiella pneumoniae [4]; 16 µg/mL (≈ 14.9 µM) in the data set with Klebsiella pneumoniae [5]. Moreover, the MIC in the data set with Pseudomonas aeruginosa [6] was 16 µg/mL (≈ 14.9 µM); in the data set with Klebsiella pneumoniae [7], greater than 256 µg/mL; in the data set with Acinetobacter baumannii [8], 128 µg/mL (≈ 119 µM); with Pseudomonas aeruginosa [9], 256 µg/mL (≈ 238 µM). Further, the CC50 (in data set [10]; in the data set with HepG2) was greater than 64 µM each time.

For the origin of these results see ChEMBL document CHEMBL4819127, “Syntheses and antimicrobial activities of ogipeptin derivatives” (Bioorg Med Chem Lett, 2021).
